Assay results as given in US20100068692A1, “ANTIFREEZE GLYCOPROTEIN ANALOGUES AND USES THEREOF” (UNIVERSITY OF OTTAWA, priority 2008, published 2010).
Entries after “also recorded” stand apart in the source; their conditions may differ.

Legend:
[1] = isentropic, value x10^4, aqueous solution at 298 K; cited from earlier work
[2] = Recrystallization inhibition (RI) assay, mean largest grain size (Experiment 1); settings: carbohydrate concentration corrected to 0.021 mmole/L (FIG. 3)
Description: All measurements were performed in triplicate. The Y-axis depicts the mean largest grain size (MLGS in mm^2) of ice crystals measured directly from photographs of the sample, as described previously (Raymond, J. A. D., A. L., Proc. Natl. Acad. Sci. USA 1977, 74, 2589).
All samples were compared to a solution of phosphate buffered saline (PBS) which was used as a negative control and a solution of AFGP 8 isolated from Gagus ogac (generously provided by AquaBounty Farms). Each solution was tested at three different concentrations in order to rule out any non-specific RI effects. The Y-axis in FIG. 5 represents mean largest grain size (MLGS) where small bars are representative of potent recrystallization-inhibition activity.
The Y-axis in FIG. 7 represents the mean largest grain size (MLGS) which is an average ice crystal surface area for each sample.

[3] = Nanolitre osmometry of carbohydrate solutions (Experiment 2); settings: 10 mg/mL solutions in double-distilled water
Description: Nanoliter osmometry was performed using a nanoliter osmometer (Clifton Technical Physics, Hartford, N.Y.) as described by Chakrabartty and Hew (Chakrabartty, A.; Hew, C. L. Eur. J. Biochem. 1991, 202, 1057-1063). All measurements were made in doubly distilled water. Ice crystal morphology was observed through a Leitz compound microscope equipped with an Olympus 20× (infinity corrected) objective, Leitz Periplan 32× photo eyepiece and a Hitachi KP-M2U CCD camera connected to a Toshiba MV13K1 TV/VCR system. Still images were captured directly using a Nikon CoolPix digital camera.
It has been proposed that the optimal distance between hydroxyl groups is 4.2-4.5 Angstroms (Baruch, E.; Belostotskii, A. M.; Mastai, Y. J. Mol. Struct. 2008, 874, 170).

[4] = RI assay, splat cooling with domain recognition software (Experiment 2)
Description: Sample analysis for RI activity was performed using the “splat cooling” method as described previously (Knight, C. A.; Hallet, J.; DeVries, A. L. Cryobiology, 1998, 25, 55). In this method, the analyte is dissolved in phosphate buffered saline (PBS) solution and a 10 μL drop of this solution is dropped from a micropipette through a two metre high plastic tube (10 cm in diameter) onto a block of polished aluminum pre-cooled to approximately −80° C. The droplet freezes instantly on the polished aluminum block and is approximately 1 cm in diameter and 20 μm thick. This wafer is then carefully removed from the surface of the block and transferred to a cryostage held at −6.4° C. for annealing. After a period of 30 minutes, the wafer was photographed between crossed polarizing filters using a digital camera (Nikon CoolPix 5000) fitted to the microscope. A total of three images are taken from each wafer. During flash freezing, ice crystals spontaneously nucleate from the super-cooled solution. These initial crystals are relatively homogenous in size and quite small. During the annealing cycle recrystallization occurs, resulting in a dramatic increase in ice crystal size. A quantitative measure of the difference in recrystallization inhibition of two compounds X and Y is the difference in the dynamics of the ice crystal size distribution. […] This processing employed of the Microsoft Windows Graphical User Interface to allow a user to visually demarcate and store the vertices of ice domains in a digital micrograph. […] To eliminate the need to fully process each micrograph, an algorithm was developed to randomly display a number of x/y locations. The algorithm made use of a built-in pseudo random number generator (rand(x)) and was written so that no two locations were closer than 1/10th the field of view of the micrograph. The formula for the area of a polygon that is not self-intersecting and contains no holes is then given by Eq.2,
where N is the number of vertices, and x0, y0 to xN−1, yN−1 are the vertices circumventing the polygon in a clockwise direction. The point x0, y0 is assumed to be equivalent to the point xN, yN. The software was written in C using Microsoft Visual Studio 6.0 on a Pentium class personal computer running Microsoft Windows 2000 or XP. All data was plotted and analyzed using Microsoft Excel.

[5] = Thermal hysteresis (TH), microcapilliary method
[6] = Nanoliter osmometer: thermal hysteresis and dynamic ice shaping (Experiment 1); settings: without antifreeze the crystal is perfectly round, 'Identical images' refers to that, 13: 0.0033 mmole/L in doubly distilled water
Description: FIG. 4 (A) depicts a single ice crystal in the absence of biological antifreeze. Notice that the crystal is perfectly round and has no facets or edges.
AFGP analogues 18a-c were assayed for antifreeze protein-specific activity using nanoliter osmometry and a recrystallization-inhibition assay.

OCC1O[C@H](O[C@@H]2C(CO)O[C@@H](O)C(O)C2O)C(O)C(O)[C@@H]1O (stereo partly shown)
Molar Compressibility (K2°(s)x10^4) [1]: −23.7 cm^3 mol^−1 bar^−1

N[C@@H](CCCCNC(=O)C[C@H]1OC(CO)[C@H](O)[C@H](O)C1O)C(=O)NCC(=O)NCC(=O)O (stereo partly shown) [Compound 10]
RI activity relative to PBS (in words) [2]: do not show any RI activity

OCC1O[C@@H](O)C(O)[C@@H](O)[C@H]1O (stereo partly drawn) [D-galactose]
Melting Point [3]: −0.069 °C | RI activity (in words) ([4]; 0.022 M in PBS solution): inhibit recrystallization as well as a 3% DMSO solution | RI activity (in words) ([4]; 0.022 M in PBS solution, listed as galactose): as efficient at inhibiting recrystallization as a 3% (v/v) DMSO solution; also recorded: possesses the most RI activity | RI activity (in words) ([4]; 0.044 M solution in PBS): RI activity similar to that of a 0.022 M solution | RI activity (in words) ([4]; 0.22 M solution in PBS): effective inhibitor of recrystallization

OCC1O[C@@H](O)C(O)[C@@H](O)[C@@H]1O (stereo partly drawn) [D-glucose]
Melting Point [3]: −0.055 °C | Molar Compressibility (K2°(s)x10^4) [1]: −17.6 cm^3 mol^−1 bar^−1

OCC1O[C@H](O[C@H]2OC(CO)[C@@H](O)C(O)C2O)C(O)C(O)[C@@H]1O (stereo partly drawn) [D-trehalose]
Melting Point [3]: −0.015 °C

C[S+](C)[O-] [DMSO, dimethylsulfoxide]
RI activity (in words) ([4]; 0.1% (v/v) solution in PBS): failed to inhibit recrystallization | RI activity (in words) ([4]; 4% (v/v) solution in PBS): produced a significant RI effect

OCC1O[C@H](O[C@H]2OC(CO)[C@@H](O)C(O)C2O)C(O)C(O)[C@@H]1O (stereo partly shown) [drawing 28]
Molar Compressibility (K2°(s)x10^4) [1]: −30.2 cm^3 mol^−1 bar^−1

OCC(O)CO [glycerol]
temperature below the melting point at which rapid crystal growth occurred / solution freezes [5]: −0.01 °C

OCC1O[C@H](OCC2O[C@@H](O)C(O)C(O)[C@@H]2O)C(O)C(O)[C@H]1O (stereo partly shown) [melibiose]
Melting Point [3]: −0.17 °C | RI activity (in words) ([4]; 0.022 M in PBS solution): is the most potent | Molar Compressibility (K2°(s)x10^4) [1]: −31.2 cm^3 mol^−1 bar^−1

[Cl-].[Na+] [salt, sodium chloride]
temperature below the melting point at which rapid crystal growth occurred / solution freezes [5]: −0.01 °C | single ice crystal morphology [6]: Identical images

OC[C@H]1O[C@@](CO)(O[C@H]2O[C@H](CO)[C@@H](O)[C@H](O)[C@H]2O)[C@@H](O)[C@@H]1O [sucrose]
RI activity (in words) ([4]; 0.022 M in PBS solution): little effect upon recrystallization

OCC1O[C@@H](O)C(O)[C@@H](O)[C@H]1O (stereo partly shown) [talose]
Molar Compressibility (K2°(s)x10^4) [1]: −11.9 cm^3 mol^−1 bar^−1

(L-lysine-glycine-glycine)-6-glycine [peptide control]
RI activity relative to PBS (in words) [2]: did not inhibit the growth of ice
